Results published in patent publication US20240409939A1 (Hoffmann-La Roche Inc., priority 2021, published 2024).
Oligonucleotides are written 5' to 3', each unit as a sugar letter and its base; * is a phosphorothioate linkage, no mark a phosphodiester; rarer units and linkages stand in square brackets, end groups in braces. Plain capitals give the bases only. l = locked nucleic acid (LNA); [5mC] = 5-methylcytosine; d = 2'-deoxy (DNA)

What was measured:
RTEL1 mRNA [1] = test: RTEL1 mRNA qPCR in HBV infected PHH cells (Example 1.1); assay type: cell-based, human; conditions: 16 days-treatment, % of average no drug control (NDC)
Experimental: (§1) Fresh primary human hepatocytes (PXB-PHH) harvested from humanized mice (uPA/SCID mice)-herein called PHH-were obtained from PhoenixBio Co., Ltd (Japan) in 96-well format and cultured in modified hepatocyte clonal growth medium (dHCGM). dHCGM is a DMEM medium containing 100 U/ml Penicillin, 100 μg/ml Streptomycin, 20 mM Hepes, 44 mM NaHCO3, 15 μg/ml L-proline, 0.25 μg/ml Insulin, 50 nM Dexamethazone, 5 ng/ml EGF, 0.1 mM Asc-2P, 2% DMSO and 10% FBS (Ishida et al., 2015).
(§2) Cells were cultured at 37° C., in a humidified atmosphere with 5% CO2. Culture medium was replaced every 2 days until harvest, except over the weekend.
(§3) PHH were incubated with HBV (purified from chronic hepatitis B (CHB) individuals) at multiplicity of infection (MOI) of 40 together with 4% PEG for 24 hr. The virus inoculum was removed the following day and cells were washed 3 times with PBS before addition of fresh medium. To allow for cccDNA establishment, compound treatment in PHH was started at day 3 post HBV infection. The cells were dosed in a 1:10 dilution step dose response manner starting at 10 μM. On Day 3, Day 5 and Day 7 post HBV infection, the cells were dosed with oligonucleotide compounds in a final volume of 100 μl/well of dHCGM Medium. 10 nM Entecavir (ETV) treatment was started at Day 5 post infection, ensuring real cccDNA measurement by qPCR, and medium including 10 nM ETV was changed every two days (except over the weekend) until cells were harvested at Day 16 post HBV infection. The experiments were performed in biological triplicates.
Total mRNA was extracted from the cells using a Qiagen BioRobot Universal System and the RNeasy 96 well Extraction Plates (RNeasy 96 BioRobot 8000 Kit (12)/Cat No. ID: 967152) according to the manufacturer's protocol. The mRNA expression levels were analyzed using Real-time PCR on the ABI QuantStudio™ 12k Flex. […] Results were normalized over the human ACT B endogenous control. The mRNA expression was analyzed using the comparative cycle threshold 2-ΔΔCt method normalized to the reference gene ACT B and to non-treated cells.
PHH were cultured as described in the Materials and Methods section. HBV infected PHH cells were treated with the compounds from Table 6 as described above. […] The results are shown in Table 18 as % of the average no drug control (NDC) samples (i.e. the lower the value the larger the inhibition/reduction).

HBV cccDNA = HBV cccDNA quantification by qPCR in HBV infected PHH cells (Example 1.1); assay type: cell-based; conditions: 16 days-treatment, % of average no drug control (NDC)
Experimental: as §1, §2, §3
DNA was extracted from HBV infected Primary Human Hepatocytes using an SDS Lysis Buffer (50 mM Tris pH8, 5 mM EDTA, 1% SDS). After lysing cells in 80 μl SDS lysis buffer, samples were frozen at −80° C. for minimum 2 hours. […] After incubation, 3 volumes of ChIP DNA binding buffer from ZYMO Research Genomic DNA Clean & Concentrator kit (ZymoResearch, cat no. D4067) were added and DNA was purified following the manufacturer's protocol. DNA was eluted in 20 μl DNA Elution buffer and qPCR was performed using 2 μl DNA.
The cccDNA expression levels were quantified in technical duplicates using the comparative cycle threshold 2-ΔΔCt method. Quantitative real-time polymerase chain reaction measurements were performed on the QuantStudio 12K Flex PCR System (Applied Biosystems). Normalization was done to mitochondrial DNA (mitoDNA) and to non-treated cells as endogenous control using the Fast SYBR™ Green Master Mix (Life Technologies, Cat. No 4385612). Cycler settings were adjusted to incubation at 95° C. for 5 min, then 45 cycles of 95° C. for 1 sec and 60° C. for 35 sec. Primers used are listed Table 17 below (all probes in the chart are SYBR Green):
PHH were cultured as described in the Materials and Methods section. […]

RTEL1 mRNA [2] = test: RTEL1 mRNA dose response in human MDA-MB-231 cell line (Example 1.2); assay type: cell-based; conditions: for IC50: RTEL1 mRNA, MDA-MB-231 cells, 3 days, n=2; for mRNA level at Max KD in MDA-MB-231: relative RTEL1 mRNA level at 50 μM oligonucleotide, PBS treated samples as control
Experimental: Human MDA-MB-231 cell lines were purchased from ATCC and maintained as recommended by the supplier in a humidified incubator at 37° C. with 5% CO2. For assays, 3500 cells/well of were seeded in a 96 multi well plate in culture media. Cells were incubated for 24 hours before addition of oligonucleotides dissolved in PBS. Highest screening concentration of oligonucleotides: 50 μM and subsequent 1:1 dilutions in 8 steps. 3 days after addition of oligonucleotides, the cells were harvested. RNA was extracted using the PureLink™ Pro 96 RNA Purification kit (Thermo Fisher Scientific) according to the manufacturer's instructions and eluated in 50 μl water. The RNA was subsequently diluted 10 times with DNase/RNase free Water (Gibco) and heated to 90° C. for one minute.
For gene expressions analysis, One Step RT-qPCR was performed using qScript™ XLT One-Step RT-qPCR ToughMix®, Low ROX™ (Quantabio) in a duplex set up. The following TaqMan primer assays were used for qPCR: RTEL1_Hs00249668_m1 [FAM-MGB] and endogenous control GUSB_Hs99999908_m1 [VIC-MGB]. All primer sets were purchased from Thermo Fisher Scientific.

Substance	RTEL % of control (Mean) (RTEL1 mRNA [1])	cccDNA % of control (Mean) (HBV cccDNA)	IC50 (RTEL1 mRNA [2]) [nM]	mRNA level at Max KD in MDA-MB-231 (RTEL1 mRNA [2])
AATTttacatactctgGT (lA*lA*lT*lT*dT*dT*dA*dC*dA*dT*dA*dC*dT*dC*dT*dG*lG*lT) [CMP ID NO 243_1]	19 % of control	28 % of control	600	38% of control
AAttttacatactctGGTC (lA*lA*dT*dT*dT*dT*dA*dC*dA*dT*dA*dC*dT*dC*dT*lG*lG*lT*l[5mC]) [CMP ID NO 244_1]	24 % of control	3 % of control	300	14% of control
CTttattataactTgaAtCTC (l[5mC]*lT*dT*dT*dA*dT*dT*dA*dT*dA*dA*dC*dT*lT*dG*dA*lA*dT*l[5mC]*lT*l[5mC]) [CMP ID NO 246_1, RTEL1 alternating flank LNA gapmer]	21 % of control	39 % of control	400	18% of control
TTacatactctggtCAAA (lT*lT*dA*dC*dA*dT*dA*dC*dT*dC*dT*dG*dG*dT*l[5mC]*lA*lA*lA) [CMP ID NO 245_1]	35 % of control	21 % of control	900	9% of control
